Source: ChEMBL document CHEMBL5108033, “Salidroside attenuates sepsis-associated acute lung injury through PPP1R15A mediated endoplasmic reticulum stress inhibition” (2022)
The source made the active and inactive calls. The rule behind the calls is not given here.

How the values were obtained:
Rattus norvegicus [1] = assay: Protection against cecal ligation-induced Sprague-Dawley rat sepsis associated acute lung injury model assessed as reduction in serum TNF-alpha at 50 mg/kg, ip and measured after 24 hrs by ELISA; type: functional, organism-based
Rattus norvegicus [2] = assay: Protection against cecal ligation-induced Sprague-Dawley rat sepsis associated acute lung injury model assessed as reduction in serum IL-1beta at 50 mg/kg, ip and measured after 24 hrs by ELISA; type: functional, organism-based
Rattus norvegicus [3] = assay: Protection against cecal ligation-induced Sprague-Dawley rat sepsis associated acute lung injury model assessed as downregulation of cecal ligation induced CHOP level at 50 mg/kg, ip and measured after 24 hrs; type: functional, organism-based
Rattus norvegicus [4] = assay: Protection against cecal ligation-induced Sprague-Dawley rat sepsis associated acute lung injury model assessed as reduction in serum IL-6 at 50 mg/kg, ip and measured after 24 hrs by ELISA; type: functional, organism-based
Rattus norvegicus [5] = assay: Protection against cecal ligation-induced Sprague-Dawley rat sepsis associated acute lung injury model assessed as reduction in neutrophil elastase activity in BALF at 50 mg/kg, ip and measured after 24 hrs by Elastase assay; type: functional, organism-based
Rattus norvegicus [6] = assay: Protection against cecal ligation-induced Sprague-Dawley rat sepsis associated acute lung injury model assessed as reduction in neutrophil number in BALF at 50 mg/kg, ip and measured after 24 hrs by cell counter analysis; type: functional, organism-based
Rattus norvegicus [7] = assay: Protection against cecal ligation-induced Sprague-Dawley rat sepsis associated acute lung injury model assessed as reduction in lung wet weight to dry weight ratio at 50 mg/kg, ip and measured after 24 hrs; type: functional, organism-based
Rattus norvegicus [8] = assay: Protection against cecal ligation-induced Sprague-Dawley rat sepsis associated acute lung injury model assessed as downregulation of cecal ligation induced ATF4 level at 50 mg/kg, ip and measured after 24 hrs; type: functional, organism-based
Rattus norvegicus [9] = assay: Protection against cecal ligation-induced Sprague-Dawley rat sepsis associated acute lung injury model assessed as upregulation of cecal ligation inhibited PPP1R15A at 50 mg/kg, ip and measured after 24 hrs; type: functional, organism-based
Rattus norvegicus [10] = assay: Protection against cecal ligation-induced Sprague-Dawley rat sepsis associated acute lung injury model assessed as reduction in lung injury at 50 mg/kg, ip and measured after 24 hrs by H and E staining based analysis; type: functional, organism-based
Rattus norvegicus [11] = assay: Protection against cecal ligation-induced Sprague-Dawley rat sepsis associated acute lung injury model assessed as downregulation of cecal ligation induced phosphorylated eIF-2alpha level at 50 mg/kg, ip and measured after 24 hrs; type: functional, organism-based
Rattus norvegicus [12] = assay: Protection against cecal ligation-induced Sprague-Dawley rat sepsis associated acute lung injury model assessed as reduction in total cell number in BALF at 50 mg/kg, ip and measured after 24 hrs by cell counter analysis; type: functional, organism-based
Rattus norvegicus [13] = assay: Protection against cecal ligation-induced Sprague-Dawley rat sepsis associated acute lung injury model assessed as reduction in albumin content in alveolar lavage fluid supernatant at 50 mg/kg, ip and measured after 24 hrs; type: functional, organism-based
Rattus norvegicus [14] = assay: Protection against cecal ligation-induced Sprague-Dawley rat sepsis associated acute lung injury model assessed as downregulation of cecal ligation induced GRP78 level at 50 mg/kg, ip and measured after 24 hrs; type: functional, organism-based
Rattus norvegicus [15] = assay: Protection against cecal ligation-induced Sprague-Dawley rat sepsis associated acute lung injury model assessed as reduction in lung water content at 50 mg/kg, ip and measured after 24 hrs; type: functional, organism-based
Epithelial cell [16] = assay: Inhibition of apoptosis in LPS-stimulated human HBE cells assessed as early apoptotic cells at 40 uM incubated for 1 hr by AnnexinV-FITC/PI staining based flow cytometric analysis (Rvb=21.5%); type: functional; parameters: scale not given: the % may be the effect or the level left
Epithelial cell [17] = assay: Inhibition of apoptosis in LPS-stimulated human HBE cells with silenced PPP1R15A assessed as necrotic cells at 40 uM incubated for 1 hr in presence of TUDCA by AnnexinV-FITC/PI staining based flow cytometric analysis (Rvb=2.48%); type: functional; parameters: scale not given: the % may be the effect or the level left
Epithelial cell [18] = assay: Cytotoxicity against LPS-stimulated human HBE cells assessed as increase in cell viability at 40 uM and measured for 24 to 72 hrs by CCK-8 assay; type: functional, cell-based; settings: time 24-72 hrs
Epithelial cell [19] = assay: Downregulation of CHOP in LPS-stimulated human HBE cells with silenced PPP1R15A at 40 uM incubated for 1 hr in presence of TUDCA by western blot analysis; type: functional, cell-based
Epithelial cell [20] = assay: Downregulation of ATF4 in LPS-stimulated human HBE cells with silenced PPP1R15A at 40 uM incubated for 1 hr in presence of TUDCA by western blot analysis; type: functional, cell-based
Epithelial cell [21] = assay: Downregulation of phosphorylated eIF-2alpha expression in LPS-stimulated human HBE cells with silenced PPP1R15A at 40 uM incubated for 1 hr in presence of TUDCA by western blot analysis; type: functional, cell-based
Epithelial cell [22] = assay: Inhibition of apoptosis in LPS-stimulated human HBE cells assessed as late apoptotic cells at 40 uM incubated for 1 hr by AnnexinV-FITC/PI staining based flow cytometric analysis (Rvb=5.75%); type: functional; parameters: scale not given: the % may be the effect or the level left
Epithelial cell [23] = assay: Induction of apoptosis in LPS-stimulated human HBE cells with silenced PPP1R15A assessed as early apoptotic cells at 40 uM incubated for 1 hr by AnnexinV-FITC/PI staining based flow cytometric analysis (Rvb=11%); type: functional
Epithelial cell [24] = assay: Induction of apoptosis in LPS-stimulated human HBE cells with silenced PPP1R15A assessed as necrotic cells at 40 uM incubated for 1 hr by AnnexinV-FITC/PI staining based flow cytometric analysis (Rvb=0.518%); type: functional
Epithelial cell [25] = assay: Downregulation of ATF4 expression in LPS-stimulated human HBE cells at 40 uM incubated for 1 hr by western blot analysis; type: functional, cell-based
Epithelial cell [26] = assay: Induction of apoptosis in LPS-stimulated human HBE cells with silenced PPP1R15A assessed as late apoptotic cells at 40 uM incubated for 1 hr by AnnexinV-FITC/PI staining based flow cytometric analysis (Rvb=2.30%); type: functional
Epithelial cell [27] = assay: Cytotoxicity against LPS-stimulated human HBE cells with silenced PPP1R15A assessed as increase in cell viability at 40 uM and measured for 24 to 72 hrs in presence of TUDCA by CCK-8 assay; type: functional, cell-based; settings: time 24-72 hrs
Epithelial cell [28] = assay: Upregulation of PPP1R15A expression in LPS-stimulated human HBE cells assessed as inhibition of LPS down regulated PPP1R15A expression at 40 uM incubated for 1 hrs by qRT-PCR analysis; type: functional, cell-based
Epithelial cell [29] = assay: Downregulation of CHOP expression in LPS-stimulated human HBE cells at 40 uM incubated for 1 hr by western blot analysis; type: functional, cell-based
Epithelial cell [30] = assay: Inhibition of apoptosis in LPS-stimulated human HBE cells assessed as viable cells at 40 uM incubated for 1 hr by AnnexinV-FITC/PI staining based flow cytometric analysis (Rvb=72.3%); type: functional; settings: read-out: Activity
Epithelial cell [31] = assay: Induction of apoptosis in LPS-stimulated human HBE cells with silenced PPP1R15A assessed as late apoptotic cells at 40 uM incubated for 1 hr by AnnexinV-FITC/PI staining based flow cytometric analysis (Rvb=85.7%); type: functional
Epithelial cell [32] = assay: Inhibition of apoptosis in LPS-stimulated human HBE cells assessed as necrotic cells at 40 uM incubated for 1 hr by AnnexinV-FITC/PI staining based flow cytometric analysis (Rvb=0.444%); type: functional; parameters: scale not given: the % may be the effect or the level left
Epithelial cell [33] = assay: Downregulation of phosphorylated eIF-2alpha expression in LPS-stimulated human HBE cells at 40 uM incubated for 1 hr by western blot analysis; type: functional, cell-based
Epithelial cell [34] = assay: Inhibition of apoptosis in LPS-stimulated human HBE cells with silenced PPP1R15A assessed as early apoptotic cells at 40 uM incubated for 1 hr in presence of TUDCA by AnnexinV-FITC/PI staining based flow cytometric analysis (Rvb=9.22%); type: functional; parameters: scale not given: the % may be the effect or the level left
Epithelial cell [35] = assay: Downregulation of GRP78 expression in LPS-stimulated human HBE cells at 40 uM incubated for 1 hr by western blot analysis; type: functional, cell-based
Epithelial cell [36] = assay: Downregulation of GRP78 in LPS-stimulated human HBE cells with silenced PPP1R15A at 40 uM incubated for 1 hr in presence of TUDCA by western blot analysis; type: functional, cell-based
Epithelial cell [37] = assay: Inhibition of apoptosis in LPS-stimulated human HBE cells with silenced PPP1R15A assessed as necrotic cells at 40 uM incubated for 1 hr in presence of TUDCA by AnnexinV-FITC/PI staining based flow cytometric analysis (Rvb=83.2%); type: functional; parameters: scale not given: the % may be the effect or the level left
Epithelial cell [38] = assay: Inhibition of apoptosis in LPS-stimulated human HBE cells with silenced PPP1R15A assessed as late apoptotic cells at 40 uM incubated for 1 hr in presence of TUDCA by AnnexinV-FITC/PI staining based flow cytometric analysis (Rvb=5.08%); type: functional; parameters: scale not given: the % may be the effect or the level left

C[C@@H]1C[C@H]2[C@@H]3CCC4=CC(=O)C=C[C@]4(C)[C@@]3(F)[C@@H](O)C[C@]2(C)[C@@]1(O)C(=O)CO
Activity (Rattus norvegicus [1]): Active
Activity (Rattus norvegicus [2]): Active
Activity (Rattus norvegicus [3]): Active
Activity (Rattus norvegicus [4]): Active
Activity (Rattus norvegicus [5]): Active
Activity (Rattus norvegicus [6]): Active
Activity (Rattus norvegicus [7]): Active
Activity (Rattus norvegicus [8]): Active
Activity (Rattus norvegicus [9]): Active
Activity (Rattus norvegicus [10]): Active
Activity (Rattus norvegicus [11]): Active
Activity (Rattus norvegicus [12]): Active
Activity (Rattus norvegicus [13]): Active
Activity (Rattus norvegicus [14]): Active
Activity (Rattus norvegicus [15]): Active

OC[C@H]1O[C@@H](OCCc2ccc(O)cc2)[C@H](O)[C@@H](O)[C@@H]1O [SALIDROSIDE]
Activity (Epithelial cell [16]): 11%
Activity (Rattus norvegicus [1]): Active
Activity (Epithelial cell [17]): 0.817%
Activity (Epithelial cell [18]): Active
Activity (Epithelial cell [19]): Active
Activity (Epithelial cell [20]): Active
Activity (Epithelial cell [21]): Active
Activity (Epithelial cell [22]): 3.27%
Activity (Epithelial cell [23]): 21.3%
Activity (Rattus norvegicus [2]): Active
Activity (Epithelial cell [24]): 0.436%
Activity (Rattus norvegicus [3]): Active
Activity (Rattus norvegicus [4]): Active
Activity (Epithelial cell [25]): Active
Activity (Epithelial cell [26]): 3.74%
Activity (Rattus norvegicus [5]): Active
Activity (Rattus norvegicus [6]): Active
Activity (Epithelial cell [27]): Active
Activity (Epithelial cell [28]): Active
Activity (Epithelial cell [29]): Active
viability at 40 µM (Epithelial cell [30]): 84.7%
Activity (Rattus norvegicus [7]): Active
Activity (Epithelial cell [31]): 74.3%
Activity (Rattus norvegicus [8]): Active
Activity (Epithelial cell [32]): 1.03%
Activity (Rattus norvegicus [9]): Active
Activity (Epithelial cell [33]): Active
Activity (Epithelial cell [34]): 11.5%
Activity (Rattus norvegicus [10]): Active
Activity (Epithelial cell [35]): Active
Activity (Rattus norvegicus [11]): Active
Activity (Epithelial cell [36]): Active
Activity (Rattus norvegicus [12]): Active
Activity (Epithelial cell [37]): 84%
Activity (Rattus norvegicus [13]): Active
Activity (Rattus norvegicus [14]): Active
Activity (Epithelial cell [38]): 3.7%
Activity (Rattus norvegicus [15]): Active
